Laboratory results reported in patent US12643901B2, “Compounds” (The Provost, Fellows, Foundation Scholars, and the other …, priority 2020, dated 2026).

Key:
RASFCs = test: Synovial fibroblast assay, IL-6 ELISA; type: cell-based, human; settings: RASFCs treated with TNF (10 ng/ml), 200 μm compound, supernatants at 72 hr, n=3, DMSO vehicle = 100%
Procedure: Synovial Fibroblast Assay
To assess the compounds in human rheumatoid arthritis samples the following protocol was employed:
Isolation of Primary Fibroblasts: RA synovial biopsies were digested with 1 mg/ml collagenase type 1 (Worthington Biochemical, Freehold, NJ, USA) in RPMI-1640 (Gibco-BRL, Paisley, UK) for 4 hr at 37° C. in humidified air with 5% CO2. Dissociated cells were grown to confluence in RPMI 1640, 10% FCS (Gibco-BRL), 10 ml of 1 mmol/l HEPES (Gibco-BRL), penicillin (100 units/ml; Bioscience), streptomycin (100 units/ml; Bioscience) and fungizone (0.25 μg/ml; Bioscience) before passaging. Cells were used between passages 3-8.
Compounds (200 μm) were tested on n=3 RASFCs
RASFCs were grown to 80% confluency in 48 well plates. RASFCs were treated with TNF (10 ng/ml) in the presence of 200 μm of each compound. Media was replaced after 24 h and fresh media and compound was added. Cell supernatants were collected at 72 hr time point. DMSO treated cells were used as a vehicle control (Red dotted line represents DMSO control).
IL-6 ELISA: Levels of pro-inflammatory cytokine IL6 were measured in cultured RASFC supernatants by specific ELISA (R&D systems, UK) according to manufacturer's conditions.
This assay measures the production of IL-6 as an indication of immune system activation: the lower the value the better from the point of view of alleviating RA symptoms. […]

[1] = molecular target: T1, queuine-tRNA ribosyltransferase enzyme complex (hQTRT1:hQTRT2) (Homo sapiens, UniProt Q9BXR0); test: [8-14C] guanine displacement assay (TGT substrate); type: biochemical; settings: 50 μM compound, 30 mins at 37° C., ≥5% is considered a positive substrate for TGT
T1 construct: polyhistidine (N); made in house; host or cells: E. coli BL21(DE3) tgt::Kmr
T1 sequence (Q9BXR0 whole entry): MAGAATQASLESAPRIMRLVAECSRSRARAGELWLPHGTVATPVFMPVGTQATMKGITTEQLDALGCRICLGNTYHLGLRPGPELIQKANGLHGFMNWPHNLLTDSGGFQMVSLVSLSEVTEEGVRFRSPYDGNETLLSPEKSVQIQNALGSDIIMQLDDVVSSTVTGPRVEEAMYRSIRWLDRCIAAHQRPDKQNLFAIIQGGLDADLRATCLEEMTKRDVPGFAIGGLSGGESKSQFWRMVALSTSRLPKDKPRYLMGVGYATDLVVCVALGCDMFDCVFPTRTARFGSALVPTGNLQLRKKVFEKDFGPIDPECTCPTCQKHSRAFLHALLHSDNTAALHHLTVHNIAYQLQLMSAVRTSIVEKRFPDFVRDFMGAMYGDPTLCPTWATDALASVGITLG
T1 sequence (Q9H974 whole entry partner): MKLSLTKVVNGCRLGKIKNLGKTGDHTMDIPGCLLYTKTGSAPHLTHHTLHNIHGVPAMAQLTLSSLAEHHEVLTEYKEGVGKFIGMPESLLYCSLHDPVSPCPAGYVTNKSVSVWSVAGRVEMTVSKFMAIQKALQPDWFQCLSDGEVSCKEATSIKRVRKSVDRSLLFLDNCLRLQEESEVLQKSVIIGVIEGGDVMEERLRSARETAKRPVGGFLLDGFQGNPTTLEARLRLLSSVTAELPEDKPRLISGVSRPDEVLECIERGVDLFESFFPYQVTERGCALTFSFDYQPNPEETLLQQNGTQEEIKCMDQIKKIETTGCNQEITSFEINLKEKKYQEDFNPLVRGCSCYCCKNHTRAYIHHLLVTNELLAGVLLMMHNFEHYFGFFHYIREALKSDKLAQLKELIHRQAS
Procedure: Compounds capable of acting as a queuine-tRNA ribosyltransferase enzyme complex substrate may be identified by use of a displacement assay as described below:
Production of [8-^14C] Guanine Labeled tRNA (tRNA*)
Before adding the 8-[^14C] guanine solution to the reaction the solution was neutralised with an equal volume (vol/vol) 0.01 M NaOH, as the [8-^14C] Guanine is supplied in 0.01 M HCl aqueous solution. In vitro synthesised human tyrosyl tRNA was prepared by T7 transcription in ultrapure nuclease-free water as described previously (Alqasem et al., 2020). Recombinant human QTRT1 enzyme containing an N-terminal polyhistidine tag and human QTRT2 containing a C-terminal TEV-Strep-Tag®II tag were produced in BL21(DE3) tgt::Kmr cells as described previously (Alqasem et al., 2020).
The reaction was incubated for 1 hour at 37° C. […] The tRNA* pellet was resuspended in 30 μL nuclease-free water and the concentration measured spectrophotometrically at A260. […]
After 30 mins the reactions were quenched by mixing with 2.5 ml ice-cold 10% trichloroacetic acid (TCA) and placed on ice for one hour to precipitate the tRNA. […] The vacuum manifold was disassembled, the filters recovered and dried again at room temperature before being placed in scintillation vials containing 10 ml of Ecoscint A and radioactivity levels measured by scintillation counting. […]

Compound	Level of IL6 expression compared to vehicle (RASFCs)	displacement of the [14C] guanine [1] [%]
Nc1nc2[nH]cc(CNOCCc3ccccc3)c2c(=O)[nH]1 [Example 1, 2-Amino-5-((phenethoxyamino)methyl)-3,7-dihydro-4H-pyrrolo[2,3-d]pyrimidin-4-one]	Reduction to 17%	–
CO/N=C/c1c[nH]c2nc(N)[nH]c(=O)c12 [Example 2, 2-Amino-4-oxo-4,7-dihydro-3H-pyrrolo[2,3-d]pyrimidine-5-carbaldehyde O-methyl oxime]	Reduction to 15%	–
Nc1nc2[nH]cc(/C=N/O)c2c(=O)[nH]1 [Example 4, 2-Amino-4-oxo-4,7-dihydro-3H-pyrrolo[2,3-d]pyrimidine-5-carbaldehyde oxime]	Reduction to 15%	–
C[C@@H]1CCN(C(=O)CC#N)C[C@@H]1N(C)c1ncnc2[nH]ccc12 [Tofacitinib, reference compound]	Reduction to 58%	–
Nc1nc2[nH]cc(CN[C@H]3C=C[C@H](O)[C@@H]3O)c2c(=O)[nH]1 [queuine base, queuine]	–	> 98
